From US20210040153A1, “OLIGOPEPTIDE HAVING DENGUE VIRUS REPLICATION INHIBITION FUNCTION AND APPLICATION THEREOF” (priority 2018, published 2021)

Legend:
NS5 = target: T1, NS5 (Dengue virus type 2, UniProt P14340); test: affinity to full-length DENV NS5 recombinant protein (phage display peptide library screening); format: binding, DENV-2
T1 construct: His6 (C); made in house; host or cells: E. coli BL21 (DE3), pET 30a/NS5
Description: 1) The protein solution is diluted with 0.1 M NaHCO3 to 100 μg/mL. Each time, 0.7 mL of the protein solution is added dropwise to a (φ35 mm polyethylene culture dish, which is gently shaken to soak the dish, which is then coated overnight at 4° C., The coating solution is aspirated and discarded; 2 mL of a blocking solution is added, and left at 4° C. for 2 h; the blocking solution is discarded, and the plate is tap-dried; the plate is washed 6 times with TBST (TBS+0,1%[V/V]Tween−20), and tap-dried each time. […]
3) The eluted phage is added to 10 mL of the host bacterial Tet-LB culture solution (OD600 to 0.5) and then amplified; after 5 hours of culture, the culture solution is collected to purify the phage, and used for the next round of screening after the titer is measured. […]

DENV 2 = test: cell poisoning experiments: inhibition of DENV 2 replication; format: cell-based, dengue virus
dengue virus type 1 = test: inhibition of replication of dengue virus type 1; format: cell-based
dengue virus type 3 = test: inhibition of replication of dengue virus type 3; format: cell-based
dengue virus type 4 = test: inhibition of replication of dengue virus type 4; format: cell-based
dengue virus = test: inhibition of dengue virus replication (serotype not given); format: cell-based; conditions: serotype not stated

KHGHHRH [Lys-His-Gly-His-His-Arg-His] was tested, and the “affinity for NS5” value (NS5) was “high specific affinity”, the “inhibitory effect on the replication of DENV 2 virus” value (DENV 2) was “significant inhibitory effect” and the “inhibitory effect on the replication of dengue virus type 1” value (dengue virus type 1) was “significant inhibitory effect”. The “inhibitory effect on the replication of dengue virus type 3” value (dengue virus type 3) was “significant inhibitory effect”, the “inhibitory effect on the replication of dengue virus type 4” value (dengue virus type 4) was “significant inhibitory effect” and the “inhibitory effect on dengue virus replication” value (dengue virus) was “highly effective inhibitory effect”. For the same substance, the “inhibitory effect on dengue virus replication” value (dengue virus; listed as oligopeptide) was “effectively inhibit”.
